This assay relates to colon cancer cell line DLD-1. Nature of the assay: Cell viability assay (CellTiter-Glo) and combination effect analysis of leptomycin B plus co-agent. It counts as cell-based, Human. The following applies: combination with leptomycin B, DLD-1 cells, average CI over fraction affected 0.2 to 0.9; for Combination Index, LMB First: 24 hours of LMB, then drug added and incubated for 48 hours; for Combination Index, Co-Agent First: drug alone for 24 hours followed by addition of LMB for 48 hours; for Combination Index, Simultaneous: simultaneous exposure to LMB and drug for 72 hours, constant ratio of IC50s. Here is the method: The efficacy of a combination of leptomycin B and specific chemotherapeutic co-agents was determined. The additive, synergistic, or antagonistic effect of the combination of leptomycin B and a co-agent was calculated for each administration regimen using Calcusyn software (Biosoft, Cambridge, United Kingdom). This software calculates a combination index using the following algorithm: CI=[D]1/[Dx]1+[D]2/[Dx]2 where • CI is the combination index; • [D]1 and [D]2 are the concentrations of the two agents being tested (i.e., LMB and the co-agent) that, in combination provide a response of x % in the assay; and • [Dx]1 and [Dx]2 are the concentrations of the two agents that, when used alone, produce a response of x % in the assay.
A CI value of one means the combined effect of the two agents is additive. A CI value of less than one means that the two agents act synergistically. A CI value of greater than one means that the two agents act antagonistically.
The area under the curve where the fraction affected of cells (FA) ranged from 0.2 to 0.9 was calculated, to generate average CI values as shown in Table 1 for colon cancer cell line DLD-1.
Human colon adenocarcinoma cell line, DLD-1, was obtained from American Type Culture Collection (Manassas, Va.). […] Leptomycin B was produced by fermentation of a high producing isolate from Streptomyces sp. […] LMB is also available from commercial sources, such as Sigma-Aldrich. Other anti-cancer agents were either purchased commercially (e.g., from Sigma Chemical Co. (St. Louis, Mo.) or from Sequoia Research Products (Oxford, UK)).
Cells were seeded in duplicate in 96-well microtiter plates at a density of 4,000 cells per well and allowed to attach overnight. Cells were treated with LMB and the corresponding cytotoxic drug at varying concentrations, ranging from 0.5 picomolar (“pM”) to 50 micromolar (“μM”), for 3 days. Cell viability was determined using the CellTiter-Glo luminescent cell viability assay (Promega). For the drug combination assay, cells were seeded in duplicate in 96-well plates (4,000 cells/well). […] Based on the IC50 values of each individual drug, combined drug treatment was designed at constant ratios of two drugs, i.e., equivalent to the ratio of their IC50. Three treatment schedules were used: The first schedule used simultaneous exposure to both LMB and drug for 72 hours. In the second schedule, the cells were exposed to 24 hours of LMB. The drug was then added to the cells and incubated for 48 hours. In the third schedule, cells were exposed to the drug alone for 24 hours followed by addition of LMB for 48 hours. Cell viability was determined by the CellTiter-Glo luminescent cell viability assay. Synergism, additivity, or antagonism was determined by median effect analysis using the combination index (CI) calculated using Calcusyn (Biosoft, Cambridge, UK), as described above.
(ATP-based viability assays read luminescence as a measure of living cells.)

Turning to `C=CCNC1=C2C[C@@H](C)C[C@H](OC)[C@H](O)[C@@H](C)/C=C(\C)[C@H](OC(N)=O)[C@@H](OC)/C=C\C=C(/C)C(=O)NC(=CC1=O)C2=O` [17-AAG, 17-allylamino-17-demethoxygeldanamycin], the “Combination Index, LMB First” value amounted to 1.13 ± 0.05; the “Combination Index, Co-Agent First” value worked out at 0.91 ± 0.09; the “Combination Index, Simultaneous” value was 1.15 ± 0.06.

Take `CCC1(c2ccc(N)cc2)CCC(=O)NC1=O` (stereo not drawn) [Aminoglutethimide, aminoglutethimide]: the “Combination Index, LMB First” value amounted to 0.82 ± 0.05; the “Combination Index, Co-Agent First” value is 1.02 ± 0.18; the “Combination Index, Simultaneous” value is on record as 0.89 ± 0.07.

Take `CC(O)(CS(=O)(=O)c1ccc(F)cc1)C(=O)Nc1ccc(C#N)c(C(F)(F)F)c1` (stereo not drawn) [Bicalutamide, bicalutamide]: the “Combination Index, LMB First” value is on record as 1.48 ± 0.32; the “Combination Index, Co-Agent First” value worked out at 1.05 ± 0.02; the “Combination Index, Simultaneous” value is reported as 1.02 ± 0.01.

With `CC(=O)O[C@@]12CO[C@@H]1C[C@H](O)[C@@]1(C)C(=O)[C@H](O)C3=C(C)[C@@H](OC(=O)[C@H](O)[C@@H](NC(=O)OC(C)(C)C)c4ccccc4)C[C@@](O)([C@@H](OC(=O)c4ccccc4)[C@H]21)C3(C)C` [Docetaxel, docetaxel], the “Combination Index, LMB First” value was found to be 1.06 ± 0.04; the “Combination Index, Co-Agent First” value came to 0.95 ± 0.07; the “Combination Index, Simultaneous” value amounted to 1.19 ± 0.14.

In the case of `COc1cccc2c1C(=O)c1c(O)c3c(c(O)c1C2=O)C[C@@](O)(C(=O)CO)C[C@@H]3O[C@H]1C[C@H](N)[C@H](O)[C@H](C)O1` [Doxorubicin, doxorubicin], the “Combination Index, LMB First” value is reported as 0.96 ± 0.05; the “Combination Index, Co-Agent First” value amounted to 0.89 ± 0.01; the “Combination Index, Simultaneous” value is on record as 0.84 ± 0.12.

As for `C/C1=C/C[C@@H](/C(C)=C/c2csc(C)n2)OC(=O)C[C@H](O)C(C)(C)C(=O)[C@H](C)[C@@H](O)[C@@H](C)CCC1` [Epo D, epothilone D], the “Combination Index, LMB First” value is recorded as 1.05 ± 0.03; the “Combination Index, Co-Agent First” value is 0.92 ± 0.05; the “Combination Index, Simultaneous” value is given as 1.06 ± 0.10.

For the molecule `Nc1ccn([C@@H]2O[C@H](CO)[C@@H](O)C2(F)F)c(=O)n1` [Gemcitabine, gemcitabine], the “Combination Index, LMB First” value was 1.18 ± 0.05; the “Combination Index, Co-Agent First” value is given as 0.71 ± 0.31; the “Combination Index, Simultaneous” value stood at 0.97 ± 0.25.

On to `CCc1c2c(nc3ccc(OC(=O)N4CCC(N5CCCCC5)CC4)cc13)-c1cc3c(c(=O)n1C2)COC(=O)[C@]3(O)CC` [Irinotecan, irinotecan], for which the “Combination Index, LMB First” value was found to be 0.77 ± 0.05; the “Combination Index, Co-Agent First” value is listed as 0.50 ± 0.001; the “Combination Index, Simultaneous” value was found to be 0.92 ± 0.08.

Turning to `CC[C@H](C)[C@@H](COC(Cc1ccccc1)C(=O)N[C@@H](CCS(C)(=O)=O)C(=O)OC(C)C)NC[C@@H](N)CS` (stereo partly drawn) [L-744832], the “Combination Index, LMB First” value is 0.82 ± 0.05; the “Combination Index, Co-Agent First” value is 0.86 ± 0.11; the “Combination Index, Simultaneous” value is recorded as 0.84 ± 0.09.

Take `O=C(CCCCCCC(=O)Nc1ccccc1)NO` [SAHA, suberoylanilide hydroxamic acid]: the “Combination Index, LMB First” value turned out to be 0.91 ± 0.04; the “Combination Index, Co-Agent First” value is given as 1.03 ± 0.11; the “Combination Index, Simultaneous” value was found to be 0.88 ± 0.04.

The values above are taken from patent publication US20050203174A1, “Combination therapies using leptomycin B” (Kosan Biosciences, Inc., priority 2004, published 2005).
